In US6300470A, “Antibiotic cryptdin peptides and methods of their use” (priority 1999, dated 2001):

Experiments:
Assay type in all cases: cell-based
[1] = system: wild type S. typhimurium (ATCC 10428); experiment: agar radial diffusion assay, wild type S. typhimurium; details: HEPES or PIPES buffer; 100 μg/ml or 300 μg/ml
Description: (§1) FIGS. 7.A. and 7.B. depict the antimicrobial activity of mouse cryptain 1 (SEQ ID NO: 6). Samples of purified natural mouse cryptdin 1 (FIG. 7.A.) or rabbit NP-1 (FIG. 7.B.) were dissolved in 0.01% acetic acid and pipetted into wells produced in a 0.6, agarose/0.3% tryptone plate containing 1×10^6 log phase bacterial cells. After incubation at 37° C. for 18 hr, antimicrobial activity was evaluated by measuring the diameters of the clear zones. Closed circles denote wild type S. typhimurium; open circles denote the phoP^- mutant. […]
(§2) Antibacterial activity was measured in an agar radial diffusion assay (Lehrer et al., supra, 1991b) using wild type S. typhimurium (ATCC 10428) or an isogenic phoP mutant of S. typhimurium (strain CS015 phoP102::Tn10d-Cam, Miller et al., supra, 1989). […]
(§3) Purified cryptdin peptides were dissolved at 3 to 300 μg/ml in 0.010% acetic acid and activity was examined against E. coli ML35 (ATCC). […] Antibacterial activity was determined by measuring the diameter of learing around each well and plotted as a function of peptide concentration.

E. coli ML35 = experiment: radial diffusion assay, E. coli ML35; details: 10 mM PIPES
Description: Purified cryptdin peptides were dissolved at 3 to 300 μg/ml in 0.010% acetic acid and activity was examined against E. coli ML35 (ATCC). In the radial diffusion assay, […] peptide solution was transferred into wells formed in plates of 1% agarose buffered with 10 mM PIPES (pH 7.4) and containing 1×10^6 log-phase bacteria grown in trypticase soy broth. After 3 hr at 37° C., the plates were overlayed with 0.8w agarose containing 2× trypticase soy broth and incubated overnight. The antibacterial activities of cryptdin peptides was compared with the activity of rabbit neutrophil defensin NP-1, which was purified from peritoneal exudates as described by Selsted et al. (J. Biol. Chem. 260:4579-4584 (1985), which is incorporated herein by reference). Antibacterial activity was determined by measuring the diameter of learing around each well and plotted as a function of peptide concentration.

[2] = system: isogenic phoP mutant of S. typhimurium (strain CS015 phoP102::Tn10d-Cam); experiment: agar radial diffusion assay, phoP mutant S. typhimurium; details: HEPES or PIPES buffer; 100 μg/ml or 300 μg/ml
Description: as §1, §2, §3

S. aureus = experiment: radial diffusion assay, S. aureus growth inhibition; details: higher concentrations (100 μg/ml and 300 μg/ml)
E. coli ML35 cells = experiment: bactericidal assay in suspension, E. coli
Description: (§4) In order to determine whether the effect of the cryptdin peptides against E. coli is bacteriostatic or bacteriocidal, bacterial killing was quantitated as a function of time. Bactericidal asgayg were performed by incubating 1-2×10^6 log-phase bacteria in 10 mM PIPES containing 10 μg peptide/ml. After incubation for 15 or 30 min at 37° C., aliquots were removed, serially diluted and plated on trypticase soy agar. Bactericidal activity was quantitated by counting colonies after overnight incubation at 37° C.
(§5) The bactericidal activity of rat cryptdin 1 also was examined. E. coli ML35 cells, S. areus 502A cells or mutant or wild type S. typhimuruim cells were incubated with various concentrations of rat cryptdin 1 or rabbit NP-1.

S. areus 502A cells = experiment: bactericidal assay, S. aureus 502A; details: 10 μg/ml
Description: as §4, §5

[3] = system: mutant S. typhimuruim cells; experiment: bactericidal assay, mutant S. typhimurium
Description: as §4, §5

[4] = system: wild type S. typhimuruim cells; experiment: bactericidal assay, wild type S. typhimurium; details: 10 μg/ml
Description: as §4, §5

Sequence: GLLCYCRKGHCKRGERVRGTCGIRFLYCCPR [cryptdin 4]
- inhibiting growth of wild type S. typhimurium compared with NP-1 [1]: more effective than the same concentration of NP-1
- activity against E. coli ML35 relative to NP-1 (E. coli ML35; compared at 100 μg/ml and 300 μg/ml): at least 50 ×
- preventing growth of mutant S. typhimurium compared with NP-1 [2]: more effective than the same concentration of NP-1
- inhibiting growth of S. aureus compared with same concentration of NP-1 (S. aureus): more effective than the same concentration of NP-1

Sequence: LKQCHCRKFCRPYEKAEGSCRPGLFIKRKICCIQQWTPG [rat cryptdin 1]
- E. coli cells killed (E. coli ML35 cells; 10 μg/ml): greater than 99%
- killing of E. coli cells, rat cryptdin 1 compared with NP-1 (E. coli ML35 cells; various concentrations): more effective than NP-1
- S. aureus cells killed (S. areus 502A cells): about 90%
- mutant S. typhimurium cells killed ([3]; 10 μg/ml): greater than 99%
- killing of mutant S. typhimurium cells, rat cryptdin 1 compared with NP-1 ([3]; various concentrations): more effective than NP-1
- killing of wild type S. typhimurium [4]: relatively ineffective

Sequence: LSKKLICYCRIRGCKRRERVFGTCRNLFLTFVFCC [cryptdin 5]
- inhibiting growth of wild type S. typhimurium compared with NP-1 [1]: more effective than the same concentration of NP-1
- activity against E. coli ML35 relative to rabbit NP-1 (E. coli ML35; at concentration above 100 μg/ml): approximately 5 ×
- preventing growth of mutant S. typhimurium compared with NP-1 [2]: more effective than the same concentration of NP-1
- inhibiting growth of S. aureus compared with same concentration of NP-1 (S. aureus): more effective than the same concentration of NP-1
